Values joined by “and” are separate entries in the source; they are usually repeats but may differ in a detail not shown here. Equal values may be shown once. Read-outs that look alike come from different tables or passages of the source.
Key:
[1] = Gallium permeation through full thickness human skin, Franz cells (effect of concentration and iontophoresis duration); type: in vitro ADME; conditions: for Amount of Ga detected in receiver after 70 h / Steady state Ga flux: nitrate hydrate; for increase in gallium permeation compared to passive cells: 16.7% w/v, 70 h
Method: Human full thickness skin was stored in the same fashion as the epidermal sheet (Example 3), and a similar Franz cell assembly technique was adopted. The effect of concentration was investigated by applying 16.7, 1.5 and 0.15 % w/v gallium solutions in pH 5.0 citric acid buffer to the donor compartment (0.8 mL). Ten minutes of 400 μA iontophoresis was applied to all of the cells and 0.5 mL samples were removed after 0, 24, 28, 42, 65 and 70 h and replaced with receiver fluid. The gallium in the samples was assayed using the LC ion-exchange method. […] Samples of 0.5 mL were removed for LC ion-exchange assay after 0, 24, 28, 42, 52 and 70 h and replaced with receiver fluid. […] Gallium solutions containing 2.4, 1.6, 0.79, 0.395 and 0.1975 mg of gallium in 20 μL of water were applied to the stratum corneum of the skin samples using a positive displacement pipette (Eppendorf, Cambridge, UK). The samples were then left for 24 h to allow the gallium to permeate the skin. The skin samples were then finely sliced using scissors, chilled and homogenised for five minutes using a T10 Ultra-Turax homogeniser (IKA works, Staufen, Germany) using 30 second pulses. The scalpel, scissors, forceps and homogeniser blades were washed through using 10 mL of PDCA mobile phase concentrate as the extractant. The PDCA concentrate (pH 4.2) was freshly made every week by weighing approximately 5.8 g PDCA, 18.5 g potassium hydroxide, 4.9 g potassium sulphate and 17.0 g of formic acid into a 1000 mL volumetric and making up to volume with DiH2O. The skin-PDCA concentrate homogenate was allowed to mix for a further 24 h before being filtered using 0.45 μm, 30 mm cellulose acetate syringe filters (Orange Scientific, Braine l'Alleud, Belgium). The gallium in the remaining solution was assayed using the LC ion-exchange method. The binding affinity was calculated by subtracting the amount of gallium recovered by the extraction from the amount applied to the skin, in order to gain the amount of gallium still bound to skin in the homogenate. This figure was then divided by the mass of the skin sample to calculate the amount of gallium bound per gram of skin.

collagen synthesis = conditions: cited from earlier work
[2] = Infinite dose mass balance study, gallium recovery from human skin; conditions: for Ga mass detected per skin surface area: nitrate hydrate
Method: An infinite dose mass balance study was performed using full thickness human skin. Small Franz cells were set up as previously described and the mass and thickness of skin section recorded. […] Cells were then treated with either […] iontophoresis or received no iontophoresis (n=6 for each). […] The skin samples were removed and reweighed.
(Cells dismantled after 0 and 60 h post iontophoresis).

[3] = Chemical stability of Ga in different 50 mM buffers (HPLC gallium recovery); type: physicochemical
Method: The chemical stability of Ga in different 50 mM buffers was assessed including TRIS (pH 7.0), pyrrolidine (pH 11.3), citric acid (pH 5.0), borate (pH 8.0), formic acid (pH 2.5), phosphate (pH 7.3) and HEPES (pH 7.2). Three standard solutions of Ga in each buffer was assessed by HPLC analysis using the method described in Example 1 at four time points 0, 24, 48 and 100 h. Performance was measured by percentage gallium recovery according to the following formula: […]

[4] = 0.15% w/v, iontophoresis 10 min, 400 μA, listed as Ga
[5] = 1.5% w/v, iontophoresis 10 min, 400 μA, listed as Ga
[6] = 16.67% w/v, iontophoresis 0 min (passive), listed as Ga
[7] = 16.67% w/v, iontophoresis 0 min (passive)
[8] = 16.67% w/v, iontophoresis 10 min, 400 μA, listed as Ga
[9] = 16.67% w/v, iontophoresis 10 min, 400 μA, listed as gallium
[10] = 16.67% w/v, iontophoresis 60 min, 400 μA, listed as Ga
[11] = 16.67% w/v, iontophoresis 60 min, 400 μA
[12] = Ionto (400 μA, 60 min) 0 h, 1.5% w/v
[13] = Ionto (400 μA, 60 min) 60 h, 1.5% w/v

O=[N+]([O-])[O-].O=[N+]([O-])[O-].O=[N+]([O-])[O-].[Ga+3] [gallium nitrate, Gallium (III) nitrate hydrate]
Amount of Ga detected in receiver after 70 h [1, 4]: 0.0028 ± 0.006 mg/cm^2 | Steady state Ga flux [1, 4]: 0.008 μg/cm^2/h and 0.008 ± 0.005 μg/cm^2/h | Amount of Ga detected in receiver after 70 h ([1]; 0.15% w/v, iontophoresis 10 min, 400 μA): 0.0028±0.006 mg/cm^2 | reduction of amount of drug permeating the skin ([1]; 1.5% w/v vs 16.67% w/v Ga, 10 min iontophoresis): 10.6% | Amount of Ga detected in receiver after 70 h [1, 5]: 0.044 ± 0.034 mg/cm^2 | Steady state Ga flux [1, 5]: 0.9 μg/cm^2/h and 0.900 ± 0.695 μg/cm^2/h | Amount of Ga detected in receiver after 70 h ([1]; 1.5% w/v, iontophoresis 10 min, 400 μA): 0.0438±0.034 mg/cm^2 | Amount of Ga detected in receiver after 70 h [1, 6]: 0.004 ± 0.011 mg/cm^2 | Steady state Ga flux [1, 6]: 0.009 ± 0.003 μg/cm^2/h | Amount of Ga detected in receiver after 70 h [1, 7]: 0.004±0.011 mg/cm^2 | Steady state Ga flux [1, 7]: 0.009±0.003 μg/cm^2/h | Amount of Ga detected in receiver after 70 h [1, 8]: 0.049 ± 0.013 mg/cm^2 | Steady state Ga flux [1, 8]: 0.9 μg/cm^2/h and 0.900 ± 0.238 μg/cm^2/h | Amount of Ga detected in receiver after 70 h [1, 9]: 0.049±0.013 mg/cm^2 | Steady state Ga flux [1, 9]: 0.9±0.238 μg/cm^2/h | Amount of Ga detected in receiver after 70 h ([1]; 16.67% w/v, iontophoresis 10 min, 400 μA): 0.049±0.013 mg/cm^2 | Amount of Ga detected in receiver after 70 h [1, 10]: 0.063 ± 0.022 mg/cm^2 | Steady state Ga flux [1, 10]: 1.300 ± 0.450 μg/cm^2/h | Amount of Ga detected in receiver after 70 h [1, 11]: 0.063±0.022 mg/cm^2 | Steady state Ga flux [1, 11]: 1.3±0.450 μg/cm^2/h | increase in gallium permeation compared to passive cells ([1]; 10 min iontophoresis): 1125% | increase in gallium permeation compared to passive cells ([1]; 60 min iontophoresis): 1475% | maximum effective dose (collagen synthesis; nitrate hydrate): 100 uM and 0.0256 mg/ml | effective range per mg tissue (collagen synthesis; per mg dry weight tissue, Goncalves et al., 2002, Bockman patent): 1 to 1000 ng/mg | effective (desired) concentration range (collagen synthesis; published, Bockman et al. 1993, Goncalves et al. 2002): 0.25 to 100 µM | Ga mass detected, full thickness human skin [2, 12]: 0.0788 ± 0.043 mg | Ga mass detected, skin corrected for binding [2, 12]: 0.127 ± 0.043 mg | Ga mass detected per skin surface area ([2]; Ionto (400 μA, 60 min) 0 h, 1.5% w/v, listed as Ga): 0.200 ± 0.069 mg/cm^2 | Ga mass detected per skin surface area [2, 12]: 0.200±0.069 mg/cm^2 | Ga mass detected, full thickness human skin [2, 13]: 0.328 ± 0.371 mg | Ga mass detected, skin corrected for binding [2, 13]: 0.391 ± 0.373 mg | Ga mass detected per skin surface area ([2]; Ionto (400 μA, 60 min) 60 h, 1.5% w/v, listed as Ga): 0.617 ± 0.059 mg/cm^2 | Ga mass detected per skin surface area [2, 13]: 0.617±0.059 mg/cm^2 | Ga mass detected, full thickness human skin ([2]; Passive 0 h, 1.5% w/v): 0.07 ± 0.036 mg | Ga mass detected, skin corrected for binding ([2]; Passive 0 h, 1.5% w/v): 0.111 ± 0.035 mg | Ga mass detected per skin surface area ([2]; Passive 0 h, 1.5% w/v, listed as Ga): 0.178 ± 0.058 mg/cm^2 | Ga mass detected per skin surface area ([2]; Passive 0 h, 1.5% w/v): 0.178±0.058 mg/cm^2 | Ga mass detected, full thickness human skin ([2]; Passive 60 h, 1.5% w/v): 0.0745 ± 0.108 mg | Ga mass detected, skin corrected for binding ([2]; Passive 60 h, 1.5% w/v): 0.137 ± 0.109 mg | Ga mass detected per skin surface area ([2]; Passive 60 h, 1.5% w/v, listed as Ga): 0.221 ± 0.176 mg/cm^2 | Ga mass detected per skin surface area ([2]; Passive 60 h, 1.5% w/v): 0.221±0.176 mg/cm^2 | increase in skin gallium content, iontophoretic vs passive ([2]; after 60 hours, 1.5% w/v): three fold | total gallium in the skin vs levels in the receiver compartment ([2]; both passive and iontophoretic cells): ten-fold higher | increase in detected gallium level in the skin, iontophoresis vs passive ([2]; immediately after iontophoresis): 12% | increase in gallium flux with 60 min iontophoresis compared to passive ([2]; receiver compartment and recovery from the skin): approximate three-fold increase | gallium skin deposition (0.15% in 0.05M citrate buffer, pH 2, cathodal 0.3 mA/cm^2 15 min): 277.90 ± 51.24 ng/mg | gallium skin deposition (0.15% in 0.05M citrate buffer, pH 3, cathodal 0.3 mA/cm^2 15 min): 113.16 ± 17.65 ng/mg | gallium skin deposition (0.15% in 0.05M citrate buffer, pH 4, cathodal 0.3 mA/cm^2 15 min): 60.5 ± 21.11 ng/mg | gallium skin deposition (0.15% in 0.05M citrate buffer, pH 6, cathodal 0.3 mA/cm^2 15 min): 51.16 ± 6.65 ng/mg | maximum skin deposition expressed as concentration (16.6% gallium nitrate in 1M citrate at pH 8, 0.3 mA/cm^2 for 15 min): 0.78 mg/mL | gallium skin deposition (16.6% in 0.1 M citrate buffer, pH 2, anodal): 91.74 ± 13.09 ng/mg | gallium skin deposition (16.6% in 0.1 M citrate buffer, pH 4, anodal): 74.42 ± 22.31 ng/mg | gallium skin deposition (16.6% in 0.1 M citrate buffer, pH 6, anodal): 62.19 ± 23.76 ng/mg | gallium skin deposition (16.6% in 0.1 M citrate buffer, pH 6, cathodal): 99.62 ± 36.44 ng/mg | gallium skin deposition (16.6% in 1M citrate buffer, pH 6, cathodal): 163.72 ± 36.72 ng/mg | gallium skin deposition (16.6% in 1M citrate buffer, pH 7, cathodal): 250.49 ± 39.76 ng/mg | gallium skin deposition (16.6% in 1M citrate buffer, pH 8, cathodal, nitrate hydrate): 329.52 ± 36.10 ng/mg and 330 ng/mg | Ga loss after 100 h ([3]; 0.25 mg/ml Ga in pyrrolidine buffer, P<0.05, ANOVA): significant Ga loss | [Ga] mg/ml recovered ([3]; Borate (pH 8.0) 50 mM, listed as Ga, nitrate hydrate): no peaks observed | [Ga] mg/ml recovered ([3]; Citric acid (pH 5.0) 50 mM, target conc. 0.13 mg/ml): 0.15 mg/mL | [Ga] mg/ml recovered ([3]; Citric acid (pH 5.0) 50 mM, target conc. 0.25 mg/ml): 0.28 mg/mL | [Ga] mg/ml recovered ([3]; Citric acid (pH 5.0) 50 mM, target conc. 0.5 mg/ml): 0.54 mg/mL | [Ga] mg/ml recovered ([3]; Formic acid (pH 2.5) 50 mM, target conc. 0.13 mg/ml): 0.16 mg/mL | [Ga] mg/ml recovered ([3]; Formic acid (pH 2.5) 50 mM, target conc. 0.25 mg/ml): 0.29 mg/mL | [Ga] mg/ml recovered ([3]; Formic acid (pH 2.5) 50 mM, target conc. 0.5 mg/ml): 0.55 mg/mL | [Ga] mg/ml recovered ([3]; HEPES (pH 7.2) 50 mM, target conc. 0.13 mg/ml): 0.10 mg/mL | [Ga] mg/ml recovered ([3]; HEPES (pH 7.2) 50 mM, target conc. 0.25 mg/ml): 0.06 mg/mL | [Ga] mg/ml recovered ([3]; HEPES (pH 7.2) 50 mM, target conc. 0.5 mg/ml): 0.13 mg/mL | [Ga] mg/ml recovered ([3]; Phosphate (pH 7.3) 50 mM, target conc. 0.13 mg/ml): 0.04 mg/mL | [Ga] mg/ml recovered ([3]; Phosphate (pH 7.3) 50 mM, target conc. 0.25 mg/ml): 0.11 mg/mL | [Ga] mg/ml recovered ([3]; Phosphate (pH 7.3) 50 mM, target conc. 0.5 mg/ml): 0.30 mg/mL | [Ga] mg/ml recovered ([3]; Pyrrolidine (pH 11.3) 50 mM, target conc. 0.13 mg/ml): 0.13 mg/mL | [Ga] mg/ml recovered ([3]; Pyrrolidine (pH 11.3) 50 mM, target conc. 0.25 mg/ml): 0.25 mg/mL | [Ga] mg/ml recovered ([3]; Pyrrolidine (pH 11.3) 50 mM, target conc. 0.5 mg/ml): 0.49 mg/mL | [Ga] mg/ml recovered ([3]; TRIS (pH 7.0) 50 mM, target conc. 0.13 mg/ml): 0.01 mg/mL | [Ga] mg/ml recovered ([3]; TRIS (pH 7.0) 50 mM, target conc. 0.25 mg/ml): 0.13 mg/mL | [Ga] mg/ml recovered ([3]; TRIS (pH 7.0) 50 mM, target conc. 0.5 mg/ml): 0.49 mg/mL | Ga loss between 0 and 100 h ([3]; citric or formic acid buffer, P>0.05, ANOVA): No significant Ga loss

From US20130072899A1, “Pharmaceutical Formulations for Iontophoretic Delivery of Gallium” (Nitric BloTherapeutics, Inc., priority 2008, published 2013)
